Laboratory results reported in patent US5547976A, “Further indole derivatives with antiviral activity” (Burroughs Wellcome Co., priority 1992, dated 1996).

Assays:
[1] = Cell toxicity (cell growth inhibition assay, MTT uptake); type: cell-based; conditions: monkey, 50% inhibition of cell viability at 96 hours, Vero cells, read-out: Cytoxicity CClD50
Method: Cell toxicity is assessed in cell growth inhibition assay. Subconfluent cultures of Vero cells grown on 96-well microtiter dishes are exposed to different dilutions of drug, and cell viability determined daily on replicate cultures using uptake of a tetrazolium dye (MTT). The concentration required for 50% inhibition of cell viability at 96 hours is termed CCID50.

[2] = tested on: Human cytomegalovirus (HCMV), CMV strain AD 169; assay: CMV assay (plaque reduction assay, MRC5 cells); type: cell-based; conditions: Human betaherpesvirus 5, HCMV strain AD 169
Method: Human cytomegalovirus (HCMV) was assayed in monolayers of either MRC5 cells (human embryonic lung) in multiwell trays. The strandard CMV strain AD 169 was used. Activity of compounds is determined in the plaque reduction assay, in which a cell monolayer is infected with a suspension of HCMV, and then overlaid with nutrient […] in the form of a gel to ensure that there is no spread of virus throughout the culture. A range of concentrations of compound of known molarity was incorporated in the nutrient agarose overlay. Plaque numbers at each concentration of drug are expressed as percentage of the control and a dose-response curve is drawn.

| Compound | CC50 at 96 h [1] [µM] | IC50 [2] [µM] |
| --- | --- | --- |
| O=C1NC(=O)c2c1c1c3cc(Cl)ccc3[nH]c1c1[nH]c3ccc(Cl)cc3c21 [12,13-Dihydro-3,9-dichloro-5H-indolo[2,3-a]pyrrolo[3,4-c]carbazole-5,7(6H)-dione] | > 125 | 0.16 |
| O=C1c2c(c3c4ccccc4[nH]c3c3[nH]c4ccccc4c23)C(=O)N1Cc1cc(C(F)(F)F)cc(C(F)(F)F)c1 [12,13-Dihydro-6-(3,5-di-trifluoromethylphenylmethyl)-5H-indolo [2,3a]pyrrolo[3,4c]carbazole-5,7(6H)-dione] | > 125 | 5.7 |
| O=C1c2c(c3c4ccccc4[nH]c3c3[nH]c4ccccc4c23)C(=O)N1Cc1cccc(C(F)(F)F)c1 [12,13-Dihydro-6-(3-trifluoromethylphenylmethyl)-5H-indolo[2,3a]pyrrolo[3,4c]-carbazole-5,7-(6H)-dione] | > 500 | 1.2 |
